# Laboratory results as given in ChEMBL document CHEMBL1126269, “Optimization of the quinoline and substituted benzyl moieties of a series of phenyltetrazole leukotriene D4 receptor antagonists” (J Med Chem, 1992).
# Where “and” joins values, the source holds several entries; their conditions need not be identical. Equal values may be shown once.
# Target: T1, Cysteinyl leukotriene receptor 1 (Cavia porcellus) (UniProt Q2NNR5)
# T1 sequence (whole entry): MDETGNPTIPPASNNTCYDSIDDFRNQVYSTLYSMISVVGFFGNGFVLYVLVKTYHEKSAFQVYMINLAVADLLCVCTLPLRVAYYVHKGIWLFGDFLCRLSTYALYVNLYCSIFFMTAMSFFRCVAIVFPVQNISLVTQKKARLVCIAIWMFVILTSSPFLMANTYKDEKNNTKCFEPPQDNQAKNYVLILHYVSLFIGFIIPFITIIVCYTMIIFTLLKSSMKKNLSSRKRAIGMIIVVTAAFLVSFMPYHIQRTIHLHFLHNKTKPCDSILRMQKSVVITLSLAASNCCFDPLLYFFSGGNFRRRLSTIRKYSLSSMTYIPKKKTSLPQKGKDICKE
# Test: Antagonistic activity in vitro against leukotriene-D4 (LTD4) induced guinea pig ileum contraction
# Type: functional, tissue-based
row,SMILES,pKB
1,c1cc(OCc2ccc3ccccc3n2)cc(-c2nnn(Cc3ccccc3-c3nn[nH]n3)n2)c1,9.1

# Test system: Cysteinyl leukotriene receptor (Cavia porcellus)
# Test: In vitro inhibition of leukotriene D4 induced contractions of isolated guinea pig ileum.
row,SMILES,pKB
1,O=C(O)c1cccc(Cn2nnc(-c3cccc(/C=C/c4ccc5ccccc5n4)c3)n2)c1,7.1
2,O=C(O)c1ccccc1CCn1nnc(-c2cccc(/C=C/c3ccc4ccc(Cl)cc4n3)c2)n1,7.9
3,O=C(O)c1ccccc1Cn1nnc(-c2cccc(/C=C/c3ccc4ccc(Cl)cc4n3)c2)n1,8.8
4,O=C(O)c1ccccc1Cn1nnc(-c2cccc(OCc3ccc4ccc(Cl)cc4n3)c2)n1,8.7
5,O=C(O)c1ccccc1Cn1nnnc1-c1cccc(OCc2ccc3ccccc3n2)c1,6.5
6,O=C(O)c1ccccc1Cn1nnc(-c2cccc(CSc3ccc4ccccc4n3)c2)n1,7
7,O=C(O)c1cc(F)ccc1Cn1nnc(-c2cccc(/C=C/c3ccc4ccc(Cl)cc4n3)c2)n1,9.1
8,O=C(O)Cc1ccccc1Cn1nnc(-c2cccc(OCc3ccc4ccccc4n3)c2)n1,7.6
9,O=C(O)c1ccccc1Cn1nnc(-c2cccc(/C=C/c3ccc4ccccc4n3)c2)n1,8.5
10,O=C(O)c1ccccc1Cn1nnc(-c2cccc(OCc3nc4ccccc4s3)c2)n1,8.3
11,O=C(O)c1sccc1Cn1nnc(-c2cccc(/C=C/c3ccc4ccc(Cl)cc4n3)c2)n1,7.8
12,COc1cccc(C(=O)O)c1Cn1nnc(-c2cccc(OCc3ccc4ccccc4n3)c2)n1,8.4
13,O=C(O)c1ccoc1Cn1nnc(-c2cccc(/C=C/c3ccc4ccccc4n3)c2)n1,7.9
14,O=C(O)Cc1ccccc1Cn1nnc(-c2cccc(/C=C/c3ccc4ccccc4n3)c2)n1,7.7
15,O=C(O)c1ccccc1Cn1nnc(-c2cccc(OCc3ccc4ccccc4n3)c2)n1,8.3 and 8.4
16,COc1cc(C(=O)O)ccc1Cn1nnc(-c2cccc(/C=C/c3ccc4ccccc4n3)c2)n1,7.4
17,COc1cc(C(=O)O)ccc1Cn1nnnc1-c1cccc(/C=C/c2ccc3ccccc3n2)c1,8.2
